# pKd: −log10 of the molar value. “And” between values parts separate entries of the source, which are not always exact repeats. Identical values can stand only once.
# What was measured:
# RslTpt1 [1] = biological target: T1, RslTpt1 (Runella slithyformis, UniProt A0A7U3ZK32); assay: NMR ligand-induced chemical shift perturbations on RslTpt1; format: binding; conditions: for backbone chemical shift perturbations induced on RslTpt1 (result in words): 15N,1H HSQC, 10 molar equivalents of ligand
# T1 sequence (A0A7U3ZK32 5-178): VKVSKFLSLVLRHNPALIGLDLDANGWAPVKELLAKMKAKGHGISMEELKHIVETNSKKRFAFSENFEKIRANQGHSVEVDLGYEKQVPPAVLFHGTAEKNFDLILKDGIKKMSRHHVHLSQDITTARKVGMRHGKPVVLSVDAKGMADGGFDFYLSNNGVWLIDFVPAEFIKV
# RslTpt1 [2] = biological target: T1, RslTpt1; assay: Isothermal titration calorimetry; format: binding
Compound,backbone chemical shift perturbations induced on RslTpt1 (result in words) (RslTpt1 [1]),"average backbone amide chemical shift perturbation Δδ, N-lobe (RslTpt1 [1]; 15N,1H resonances, 4 molar equivalents of NADP^+)","fold less affinity than NAD^+ (RslTpt1 [2]; ratio of ITC KD values, NADP^+ versus NAD^+)","pKd (RslTpt1 [2]; read-out: apparent KD, ITC, 17°C, approximate value)"
"NC(=O)c1ccc[n+]([C@@H]2O[C@H](COP(=O)([O-])O)[C@@H](O)[C@H]2O)c1 [NMN, β-nicotinamide mononucleotide]",no significant CSPs,,,
NC(=O)c1ccc[n+]([C@@H]2O[C@H](COP(=O)([O-])OP(=O)(O)OC[C@H]3O[C@@H](n4cnc5c(N)ncnc54)[C@H](OP(=O)(O)O)[C@@H]3O)[C@@H](O)[C@H]2O)c1 [NADP^+],,0.02 ± 0.03 ppm and 0.02 ppm,~30 fold,~3.00
"NC(=O)c1cccnc1 [Nicotinamide, nicotinamide]",no significant CSPs,,,
